Results: the NIST ThermoML archive (doi:10.1016/j.jct.2013.03.008)
Numbers after ± are expanded uncertainties.

Assay: cn = amount concentration of the nth substance listed, in mol/dm3
Conditions: 313 K, Ring tensiometer

A surface tension liquid-gas (c1 = 0.000412) of 30.2 ± 0.5 mN/m was found for CCCCCCCCCCCC(=O)OCC[N+](C)(C)CCC[N+](C)(C)CCOC(=O)CCCCCCCCCCC.[Br-].[Br-] + O in this work.
A surface tension liquid-gas (c1 = 0.000168) of 26.4 ± 0.4 mN/m was found for CCCCCCCCCCCCOC(=O)C[N+](C)(C)CC[N+](C)(C)CC(=O)OCCCCCCCCCCCC.[Br-].[Br-] + O in this work.
A surface tension liquid-gas (c1 = 0.000228) of 27.2 ± 0.4 mN/m was found for CCCCCCCCCCCCOC(=O)C[N+](C)(C)CCC[N+](C)(C)CC(=O)OCCCCCCCCCCCC.[Br-].[Br-] + O in this work.
